This test deals with Genome polyprotein (West Nile virus, UniProt P06935). Nature of the test: West Nile NS2B-NS3 proteinase blockers – biochemical, confirmation, dose response (AID 653).

Structures can show the parent of a compound that is named as a salt. Bounds are passed on as bounds.

Sequence of Genome polyprotein (P06935 1371-1501 limits assumed): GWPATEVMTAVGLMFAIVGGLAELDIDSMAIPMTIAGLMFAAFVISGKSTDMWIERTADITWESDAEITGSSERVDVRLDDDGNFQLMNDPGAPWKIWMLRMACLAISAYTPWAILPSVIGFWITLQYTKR
Sequence of Genome polyprotein (P06935 1502-2120 limits assumed): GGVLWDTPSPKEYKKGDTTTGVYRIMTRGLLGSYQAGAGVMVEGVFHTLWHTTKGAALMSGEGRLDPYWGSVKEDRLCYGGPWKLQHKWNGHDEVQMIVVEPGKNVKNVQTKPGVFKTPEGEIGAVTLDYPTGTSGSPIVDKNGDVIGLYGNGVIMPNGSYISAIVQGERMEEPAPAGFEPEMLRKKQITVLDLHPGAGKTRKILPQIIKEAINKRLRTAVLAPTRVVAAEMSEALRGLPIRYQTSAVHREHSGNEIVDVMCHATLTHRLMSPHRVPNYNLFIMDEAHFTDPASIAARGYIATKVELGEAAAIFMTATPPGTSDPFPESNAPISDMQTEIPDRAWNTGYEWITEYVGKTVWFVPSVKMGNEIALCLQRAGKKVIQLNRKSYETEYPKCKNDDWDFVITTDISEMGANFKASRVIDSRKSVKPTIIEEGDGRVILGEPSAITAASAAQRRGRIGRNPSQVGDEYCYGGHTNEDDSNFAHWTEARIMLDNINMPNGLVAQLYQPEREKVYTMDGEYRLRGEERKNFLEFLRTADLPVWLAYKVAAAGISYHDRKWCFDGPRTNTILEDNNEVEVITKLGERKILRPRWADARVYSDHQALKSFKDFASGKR

In turn, `CCN(CC(=O)NC(C)C)C(=O)CCNC(=O)c1ccc(Cl)cc1` [4-chloranyl-N-[3-[ethyl-[2-oxidanylidene-2-(propan-2-ylamino)ethyl]amino]-3-oxidanylidene-propyl]benzamide] registered a concentration for half-maximal inhibition (IC50) of over 50 µM.
The figure for `CCOC(=O)C(CC(=O)O)N1CCCCC1` (configuration not stated) [4-ethoxy-4-keto-3-piperidino-butyric acid] is over 50 µM; for `COc1cc(C)nc(Oc2ccc(OCCOc3ccc(C)cc3)nn2)n1` [4-methoxy-6-methyl-2-[6-[2-(4-methylphenoxy)ethoxy]pyridazin-3-yl]oxy-pyrimidine] it is over 50 µM.
As to `O=C1NC(=O)C(c2ccccc2)(c2ccccc2)N1` [5,5-DIPHENYLHYDANTOIN SODIUM SALT], the IC50 was over 50 µM.
Then `CNC(=O)c1nnc(Cc2ccc(F)cc2)o1` [5-(4-fluorobenzyl)-N-methyl-1,3,4-oxadiazole-2-carboxamide], with over 50 µM.
Then `COc1ccc(C2CC(c3cccc(C)c3)n3ncnc3N2)cc1` (configuration not stated) [5-(4-methoxyphenyl)-7-(3-methylphenyl)-1,5,6,7-tetrahydro-[1,2,4]triazolo[1,5-a]pyrimidine], with over 50 µM; and `Cc1ccccc1S(=O)(=O)Cc1ccc(C(=O)NCCCOC(C)C)o1` [5-[(2-methylphenyl)sulfonylmethyl]-N-(3-propan-2-yloxypropyl)-2-furancarboxamide], with over 50 µM.
The figure for `C=CCC1(CN2CCCCCC2=O)C(=O)NC(=O)NC1=O` [5-[(2-oxidanylideneazepan-1-yl)methyl]-5-prop-2-enyl-1,3-diazinane-2,4,6-trione] is over 50 µM; for `COc1ccc(Br)cc1C=c1sc2nc(-c3ccco3)nn2c1=O` [5-[(5-bromanyl-2-methoxy-phenyl)methylidene]-2-(furan-2-yl)-[1,3]thiazolo[3,2-b][1,2,4]triazol-6-one] it is over 50 µM; for `COC(=O)c1ccc(CSc2nnc(SCc3ccc(C(=O)OC)o3)s2)o1` [5-[[[5-[(5-carbomethoxy-2-furyl)methylthio]-1,3,4-thiadiazol-2-yl]thio]methyl]furan-2-carboxylic acid methyl ester] it is over 50 µM.
As for `Nc1cc(OC(=O)c2cccs2)nn1S(=O)(=O)c1ccc(F)cc1` [5-amino-1-[(4-fluorophenyl)sulfonyl]-1H-pyrazol-3-yl thiophene-2-carboxylate], it took 1.16 µM to reach half-maximal inhibition (IC50).
The figure for `CCOC(=O)c1c(C)n(C)c2ccc(OC)c(NC(=O)CN3CCCCC3)c12` [5-methoxy-1,2-dimethyl-4-[(2-piperidinoacetyl)amino]indole-3-carboxylic acid ethyl ester] is over 50 µM.
Then `Cn1c2ccccc2c2nn(-c3ccccc3)c(=O)cc21` [5-methyl-2-phenyl-3-pyridazino[4,3-b]indolone], with over 50 µM.
Take `COc1ccc(-c2cn3ccsc3n2)cc1` [6-(4-methoxyphenyl)imidazo[2,1-b][1,3]thiazole]: the IC50 was over 50 µM.
The figure for `COc1ccc2c3c(cccc13)NN=C2C` [6-Methoxy-3-methyl-1H-benzo[de]cinnoline] is 10.1 µM; for `Cc1csc2nc(CNC(=O)C3CC=CCC3C(=O)O)cn12` (configuration not stated) [6-[(3-methylimidazo[2,1-b][1,3]thiazol-6-yl)methylcarbamoyl]cyclohex-3-ene-1-carboxylic acid] it is over 50 µM.
The figure for `COc1cc(C2CC(C(F)(F)F)n3ncc(C(=O)O)c3N2)cc(OC)c1OC` (configuration not stated) [7-(trifluoromethyl)-5-(3,4,5-trimethoxyphenyl)-1,5,6,7-tetrahydropyrazolo[1,5-a]pyrimidine-3-carboxylic acid] is over 50 µM; for `Cc1oc2c(CN(C)C)c(O)ccc2c(=O)c1-c1ccc2ccccc2n1` [8-[(dimethylamino)methyl]-2-methyl-7-oxidanyl-3-quinolin-2-yl-chromen-4-one] it is over 50 µM.
Then `CN1CCN(CC(=O)N2c3ccccc3C(=O)Nc3cccnc32)CC1` [11-[(4-methylpiperazin-1-yl)acetyl]-5,11-dihydro-6H-pyrido[2,3-b][1,4]benzodiazepin-6-one], with over 50 µM; and `CCN1CCN(C(=O)C2c3cc(OC)c(OC)cc3C(=O)N3CCc4ccccc4C23)CC1` (configuration not stated) [13-(4-ethylpiperazin-1-yl)carbonyl-10,11-dimethoxy-5,6,13,13a-tetrahydroisoquinolino[2,1-b]isoquinolin-8-one], with over 50 µM.
The compound `COc1cc(C=CC(=O)CC(=O)C=Cc2ccc(O)c(OC)c2)ccc1O` [(1E,6E)-1,7-bis(4-hydroxy-3-methoxyphenyl)hepta-1,6-diene-3,5-dione] had an IC50 of over 50 µM.
The figure for `Cc1nn(-c2ccccc2)c2sc(C(=O)OC3CCOC3=O)cc12` (configuration not stated) [(2-oxidanylideneoxolan-3-yl) 3-methyl-1-phenyl-thieno[2,3-c]pyrazole-5-carboxylate] is over 50 µM; for `CCCCc1oc2ccccc2c1C(=O)c1cc(I)c(OCCN(CC)CC)c(I)c1` [(2-{4-[(2-butyl-1-benzofuran-3-yl)carbonyl]-2,6-diiodophenoxy}ethyl)diethylamine] it is over 50 µM.
Then `CN(C)/C=C1/Sc2ccccc2C1=O` [(2E)-2-(dimethylaminomethylene)benzothiophen-3-one], with over 50 µM; and `CCCCOCCCNC(=O)N[C@@H](CC(C)C)C(=O)O` [(2S)-2-(3-butoxypropylcarbamoylamino)-4-methyl-pentanoic acid], with over 50 µM; and `CNC(=O)Oc1ccc2c(c1)[C@]1(C)CCN(C)[C@@H]1N2C` [(3aS,8aR)-1,3a,8-trimethyl-1H,2H,3H,3aH,8H,8aH-pyrrolo[2,3-b]indol-5-yl N-methylcarbamate; 2-hydroxybenzoic acid], with over 50 µM.
Then `COP(=O)(OC)C(O)C(Cl)(Cl)Cl` (stereo not drawn) [(+-)-Trichlorfon], with over 50 µM; and `N#[N+][CH-]C(=O)OCC(N)C(=O)O` [(E)-1-[(2S)-2-amino-2-carboxy-ethoxy]-2-diazonio-ethenolate], with over 50 µM; and `COc1ccc(/C=C(/C#N)c2cccnc2)cc1OC` [(E)-3-(3,4-dimethoxyphenyl)-2-(3-pyridinyl)-2-propenenitrile], with over 50 µM.
For `CCCCC[C@H](O)C=C[C@H]1C=CC(=O)[C@@H]1C/C=C\CCCC(=O)O` [(Z)-7-[(1R,5S)-2-oxidanylidene-5-[(E,3S)-3-oxidanyloct-1-enyl]cyclopent-3-en-1-yl]hept-5-enoic acid], the IC50 is over 50 µM.
Then `CN(C)c1nc(N(C)C)nc(N(C)C)n1` [ALTRETAMINE], with over 50 µM.
Then `CCCC(CCC)C(=O)OC1C[C@H]2CC[C@@H](C1)[N+]2(C)C` (some centres not stated) [ANISOTROPINE METHYLBROMIDE], with over 50 µM; and `COc1ccc(S(=O)(=O)n2nc(OC(=O)c3ccccc3)cc2N)cc1` [Benzoic acid 5-amino-1-(4-methoxy-benzenesulfonyl)-1H-pyrazol-3-yl ester], with 0.105 µM; and `CCn1nc(C(=O)O)c(=O)c2cc3c(cc21)OCO3` [CINOXACIN], with over 50 µM.
With `CC[N+](C)(C)c1cccc(O)c1` [Edrophonium Chloride, 3], the IC50 was over 50 µM.
The figure for `O=C(c1ccco1)N(CCCN1CCOCC1)c1nc(-c2ccc(Cl)cc2)cs1` [Furan-2-carboxylic acid [4-(4-chloro-phenyl)-thiazol-2-yl]-(3-morpholin-4-yl-propyl)-amide] is over 50 µM; for `NS(=O)(=O)c1cc2c(cc1Cl)N=CNS2(=O)=O` [MLS000028398] it is over 50 µM.

For orientation: IC50 means the midpoint of a concentration-inhibition curve. Low readings indicate inhibition by little substance, high ones a need for much substance.
